Results published in patent US5468771A, “Cholesterol lowering compound” (Merck & Co., Inc., priority 1994, dated 1995).

Target: T1, squalene synthetase (Homo sapiens, UniProt P37268)
T1 construct: The HepG2 enzyme preparation was centrifuged at 34,000 rpm to separate the cytosol and microsomal enzymes; host or cells: HepG2 (human hepatoblastoma), resuspended 34,000 rpm pellet of sonicated cells
T1 sequence (P37268 1-417): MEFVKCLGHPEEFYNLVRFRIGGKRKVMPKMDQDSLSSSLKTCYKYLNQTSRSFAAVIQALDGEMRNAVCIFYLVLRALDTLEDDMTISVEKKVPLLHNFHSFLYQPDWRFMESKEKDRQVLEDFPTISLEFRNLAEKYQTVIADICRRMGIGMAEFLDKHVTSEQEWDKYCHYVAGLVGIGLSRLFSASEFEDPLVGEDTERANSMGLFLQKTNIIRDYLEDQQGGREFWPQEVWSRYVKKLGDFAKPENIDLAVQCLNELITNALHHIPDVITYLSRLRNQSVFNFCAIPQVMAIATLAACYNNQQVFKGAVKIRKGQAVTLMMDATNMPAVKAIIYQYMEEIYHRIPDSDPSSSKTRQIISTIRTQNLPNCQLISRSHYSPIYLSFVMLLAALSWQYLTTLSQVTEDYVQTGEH
Test: Squalene synthetase assay (in vitro, human HepG2 cell enzyme, 3H-farnesyl pyrophosphate substrate)
Format: biochemical
Conditions: 30° C., 20 minutes
Experimental: The intrinsic squalene synthetase inhibitory activity of the compound of this invention was measured by the ill vitro protocol described below:
PREPARATION OF HUMAN HepG2 cell ENZYME
1. SOURCE: HEPG2 CELL LINE(Liver, hepatoblastoma, Human) ATCC No. HB 8065
2. CELL GROWTH AND MAINTENANCE
Culture Medium: Minimum essential medium (MEM) with non-essential amino acids, sodium pyruvate, and 10% fetal bovine serum. The medium was changed twice weekly. […] The growth medium is prepared as listed below. […]
Subculture Procedure: Remove medium, wash with PBS, add fresh trypsin (0.25%)-EDTA (0.02%) with Hank's Balanced Salt solution and let flask stand for a minute and remove the trypsin solution . Incubate flask at 37° C. until cells detached. Add fresh medium, disperse and dispense cells into new flasks. Subcultivation ratio: 1:6.
PREPARATION of Delipidated Serum: Fetal calf serum(100 ml) and CAB-O-Sil (2 grams) stir overnight at 4° C. and centrifuge at 16,000 rpm for 5 hrs. […]
For each reaction, 55 μl of buffer mixture was taken with 5 μl of an inhibitor solution in MeOH and 10 μl of diluted enzyme (1 to 1536 as described in the enzyme preparation, the final protein concentration of enzyme in the assay is 1.2 μg per ml.). […] 400 μl of heptane layer was then removed into a […] and mixed with 2.5 ml of scintillation fluid and the radioactivity was determined by liquid scintillation counting. […]

Compound: C=C(CC[C@]12O[C@H](C(=O)O)[C@@](O)(C(=O)O)[C@](C(=O)O)(O1)[C@H](OC(=O)/C=C/C(C)CC(C)C(C)O)[C@H]2O)[C@@H](OC(C)=O)C(C)Cc1ccccc1 (stereo partly drawn) [compound of this invention, (1S,3S,4S,5S,6R,7R)-1-[(4S)-acetoxy-3-methylene-5-methyl-6-phenyl]hexyl-4,6,7-trihydroxy-6-0-(4,6-dimethyl-7-hydroxy-2-octenoyl)-2,8-dioxabicyclo [3.2.1]octane-3,4,5-tricarboxylic acid]
- IC50 (3 μM 3H-farnesyl pyrophosphate, estimated, with a dose related inhibition, read-out: IC50 against squalene synthetase): ~0.091 nM
- inhibition at 0.0018 µM (tested at a concentration of 1.8 nM): 99%
